Laboratory results published in patent publication US10238670B2, “9-aminomethyl minocycline compounds and methods of use thereof in urinary tract infection (UTI) treatment” (Paratek Pharmaceuticals, Inc., priority 2016, dated 2019).

Assays:
Experiment in all cases: In vitro MIC, 2010 surveillance isolates
[1] = tested on: MS CoNS; type: cell-based, Coagulase-Negative Staphylococcus
[2] = tested on: E. cloacae CeftazR; type: cell-based; settings: for % R (resistance): Eucast breakpoints
[3] = tested on: Enterobacter spp; type: cell-based; settings: for % R (resistance): Eucast breakpoints
[4] = tested on: E. faecalis VNS; type: cell-based
[5] = tested on: K. oxytoca; type: cell-based; settings: for % R (resistance): Eucast breakpoints
[6] = tested on: MSSA; type: cell-based
[7] = tested on: E. faecium VS; type: cell-based; settings: for % R (resistance): Eucast breakpoints
[8] = tested on: MR CoNS; type: cell-based, Coagulase-Negative Staphylococcus
[9] = tested on: E. faecium VNS; type: cell-based; settings: for % R (resistance): Eucast breakpoints
[10] = tested on: E. coli ESBL+; type: cell-based, Escherichia coli; settings: for % R (resistance): Eucast breakpoints
[11] = tested on: K. pneumoniae ESBL−; type: cell-based, Klebsiella pneumoniae
[12] = tested on: E. cloacae CeftazS; type: cell-based; settings: for % R (resistance): Eucast breakpoints
[13] = tested on: Acinetobacter spp; type: cell-based
[14] = tested on: K. pneumoniae ESBL+; type: cell-based, Klebsiella pneumoniae; settings: for % R (resistance): Eucast breakpoints
[15] = tested on: MRSA; type: cell-based
[16] = tested on: E. coli ESBL−; type: cell-based, Escherichia coli; settings: for % R (resistance): Eucast breakpoints
[17] = tested on: A. baumanii; type: cell-based
[18] = tested on: E. faecalis VS; type: cell-based

amoxicillin-clavulanic acid [Amox/clav]
100%: % R (resistance) ([2]; Asia/Pac) | % R (resistance) ([2]; Europe) | % R (resistance) ([8]; Asia/Pac, Eucast breakpoints) | % R (resistance) ([8]; Europe, Eucast breakpoints) | % R (resistance) ([8]; L. Amer, CLSI breakpoints) | % R (resistance) ([8]; N America, CLSI breakpoints) | % R (resistance) ([9]; Asia/Pac) | % R (resistance) ([9]; Europe) | % R (resistance) ([15]; Asia/Pac, Eucast breakpoints) | % R (resistance) ([15]; Europe, Eucast breakpoints) | % R (resistance) ([15]; L. Amer, CLSI breakpoints) | % R (resistance) ([15]; N America, CLSI breakpoints)
≤: MIC90 ([6]; L. Amer, N=590)
96.2%: % R (resistance) ([3]; Asia/Pac)
14.6%: % R (resistance) ([5]; Europe)
≤ 1 µg/mL: MIC90 ([1]; Asia/Pac, N=18) | MIC90 ([1]; Europe, N=185) | MIC90 ([1]; L. Amer, N=67) | MIC90 ([1]; N America, N=191) | MIC90 ([4]; N America, N=38) | MIC90 ([6]; Asia/Pac, N=641) | MIC90 ([6]; Europe, N=2109) | MIC90 ([6]; N America, N=2373) | MIC90 ([18]; Asia/Pac, N=214) | MIC90 ([18]; Europe, N=669) | MIC90 ([18]; L. Amer, N=290) | MIC90 ([18]; N America, N=863)
14.2%: % R (resistance) ([16]; Asia/Pac)
23.5%: % R (resistance) ([5]; Asia/Pac)
72.6%: % R (resistance) ([14]; Asia/Pac)
92.3%: % R (resistance) ([12]; Europe)
39.3%: % R (resistance) ([10]; Asia/Pac)
91.5%: % R (resistance) ([3]; Europe) | % R (resistance) ([7]; Asia/Pac)
4 µg/mL: MIC90 ([11]; N America, N=671)
0%: % R (resistance) ([1]; Asia/Pac, Eucast breakpoints) | % R (resistance) ([1]; Europe, Eucast breakpoints) | % R (resistance) ([1]; L. Amer, CLSI breakpoints) | % R (resistance) ([1]; N America, CLSI breakpoints) | % R (resistance) ([4]; Europe, Eucast breakpoints) | % R (resistance) ([4]; L. Amer, CLSI breakpoints) | % R (resistance) ([4]; N America, CLSI breakpoints) | % R (resistance) ([6]; Asia/Pac, Eucast breakpoints) | % R (resistance) ([6]; Europe, Eucast breakpoints) | % R (resistance) ([6]; L. Amer, CLSI breakpoints) | % R (resistance) ([11]; N America, CLSI breakpoints) | % R (resistance) ([18]; Asia/Pac, Eucast breakpoints) | % R (resistance) ([18]; Europe, Eucast breakpoints) | % R (resistance) ([18]; L. Amer, CLSI breakpoints) | % R (resistance) ([18]; N America, CLSI breakpoints)
17.7%: % R (resistance) ([16]; Europe)
3.7%: % R (resistance) ([11]; Asia/Pac, Eucast breakpoints)
70.1%: % R (resistance) ([10]; Europe)
7.2%: % R (resistance) ([11]; Europe, Eucast breakpoints)
0.1%: % R (resistance) ([6]; N America, CLSI breakpoints)
94%: % R (resistance) ([12]; Asia/Pac)
> 8 µg/mL: MIC90 ([2]; Asia/Pac, N=63) | MIC90 ([2]; Europe, N=72) | MIC90 ([2]; L. Amer, N=42) | MIC90 ([2]; N America, N=77) | MIC90 ([3]; Asia/Pac, N=52) | MIC90 ([3]; Europe, N=82) | MIC90 ([3]; L. Amer, N=42) | MIC90 ([3]; N America, N=101) | MIC90 ([5]; Asia/Pac, N=17) | MIC90 ([5]; Europe, N=158) | MIC90 ([5]; L. Amer, N=25) | MIC90 ([5]; N America, N=177) | MIC90 ([7]; Asia/Pac, N=106) | MIC90 ([7]; Europe, N=303) | MIC90 ([7]; L. Amer, N=51) | MIC90 ([7]; N America, N=115) | MIC90 ([8]; Asia/Pac, N=77) | MIC90 ([8]; Europe, N=510) | MIC90 ([8]; L. Amer, N=301) | MIC90 ([9]; Asia/Pac, N=24) | MIC90 ([9]; Europe, N=71) | MIC90 ([9]; L. Amer, N=41) | MIC90 ([9]; N America, N=478) | MIC90 ([10]; Asia/Pac, N=219) | MIC90 ([10]; Europe, N=274) | MIC90 ([10]; L. Amer, N=168) | MIC90 ([10]; N America, N=134) | MIC90 ([12]; Asia/Pac, N=100) | MIC90 ([12]; Europe, N=183) | MIC90 ([12]; L. Amer, N=57) | MIC90 ([12]; N America, N=210) | MIC90 ([13]; Europe, N=43) | MIC90 ([13]; N America, N=42) | MIC90 ([14]; Asia/Pac, N=124) | MIC90 ([14]; Europe, N=151) | MIC90 ([14]; L. Amer, N=209) | MIC90 ([14]; N America, N=108) | MIC90 ([15]; Asia/Pac, N=428) | MIC90 ([15]; Europe, N=750) | MIC90 ([15]; L. Amer, N=506) | MIC90 ([15]; N America, N=2508) | MIC90 ([16]; Asia/Pac, N=282) | MIC90 ([16]; Europe, N=1533) | MIC90 ([16]; L. Amer, N=389) | MIC90 ([16]; N America, N=1172) | MIC90 ([17]; Asia/Pac, N=275) | MIC90 ([17]; Europe, N=145) | MIC90 ([17]; L. Amer, N=275) | MIC90 ([17]; N America, N=154)
≤1-2: range of MICs (N <10, shown instead of MIC90) ([4]; Europe, N=8) | range of MICs (N <10, shown instead of MIC90) ([4]; L. Amer, N=7)
93.4%: % R (resistance) ([7]; Europe)
84.1%: % R (resistance) ([14]; Europe)
8 µg/mL: MIC90 ([8]; N America, N=461) | MIC90 ([11]; Asia/Pac, N=189) | MIC90 ([11]; Europe, N=361) | MIC90 ([11]; L. Amer, N=160)
≤1: range of MICs (N <10, shown instead of MIC90) ([4]; Asia/Pac, N=1)
